Results: patent publication US7465738B2, “Compounds useful as promoters of SMN2” (Vertex Pharmaceuticals Incorporated, priority 2003, dated 2008)

Test system: SMN2 promoter
Assay: SMN2 promoter-β-lactamase (BLA) assay in NSC-34 cells
Assay type: cell-based, mouse
Settings: 15 NSC-34 SMN2-promoter-BLA clones with low BLA activity
From the text: Compounds were screened for their ability to increase SMN2 gene transcription. In general the screening method of the invention involves the use of an SMN2 promoter-β-lactamase (BLA) assay in NSC-34 cells. […] This construct was transfected into the NSC-34 cells and a stable pool of SMN2-promoter-BLA cells was generated. […] Optimized protocols are presented in the procedures below. […] Subculture Protocol for and the […]-Bla Cell Line (#5.3) and the SMN2 Promoter-Bla Cell Line (#11). […] Cells were kept at a density between 50,000 and 500,000/ml and were fed every three days with DMEM 5% FCS and incubated at 37° C., 5% CO2 and 90% humidity. • b. Cells were then plated at low density (50,000 cells/ml). • c. […] Cells were fed by manually pipetting the cells, and passaging the cells 1 to 10 to a new flask. […] Standard Assay Protocol #1 for SMN2 Promoter Assays in 96-Well Plates: • e. Cells were washed twice with cold PBS by spinning down and resuspending at 250,000 cells/ml. • f. Cells were resuspended in DMEM 0% FCS at a density of 500,000 cells/ml. • g. Cells were then dispensed 100 μl cells per well of a 96-well, black wall, clear bottom assay plate (Corning Costar, Cat. # 3904). Plate can be pre-formatted with test compounds. • h. […] Cells were incubated for 1 hour in the dark at room temperature. • 6×CCF2-AM Staining Solution: • 60 μl of Sol B • 6 μl of CCF2-AM (1 mM) • 12 μl of Probenecid (1 M, Sigma, Cat # 8761) • 1 μl of Sol C • j. Assay plates were read on a fluorimeter (for example, the Cytofluor 4000 from Perceptive Biosystems) using the following two settings: 460/40 nm emission with 395/25 nm excitation, and 530/25 nm emission with 395/25 nm excitation. • k. […] Standard Assay Protocol #2 for SMN2 Promoter Assays in 96-Well Plates: • l. Cells were washed twice with cold PBS by spinning down and resuspending at 250,000 cells/ml. • m. Cells were then resuspended in DMEM 1% FCS Charcoal Dextran-treated (Hyclone, Cat # SH30038.05) at a density of […]. • n. Cells were then incubated for 24 hours at 37° C. • o. 100 μl cells per well were then dispensed in a 96-well, black wall, clear bottom assay plate (Corning Costar, Cat. # 3904). Plate can be pre-formatted with test compounds. • p. […] Cells were incubated for one hour in the dark at room temperature. • 6×CCF2-AM Staining Solution: • 60 μl of Sol B • 6 μl of CCF2-AM (1 mM) • 12 μl of Probenecid (1 M, Sigma, Cat# 8761) • 1 μl of SolC • r. Assay plates were read on a fluorimeter (for example, the Cytofluor 4000 from Perceptive Biosystems) using the following two settings: 460/40 nm emission with 395/25 nm excitation, and 530/25 nm emission with 395/25 nm excitation. • s.

Row | SMILES | changes in BLA activity after treatment
1 | CC(C)Cn1c(=O)n(C)c(=O)c2[nH]cnc21 [IBMX, reference compound] | none showed changes in BLA activity

Same assay, conditions: Mus musculus; SMN2 promoter BLA assay, NSC-34 cells, 96-well plates

Row | SMILES | EC50
2 | Nc1nc(N)c2c(Oc3ccc(F)cc3)cccc2n1 [Compound I-3] | 150 nM
3 | CCCN(Cc1ccc([N+](=O)[O-])cc1)c1nc(O)nc(NC2CCCC2)n1 [VIII-1] | 9000 nM

The remaining lines, values ahead:

Row | EC50 | SMILES
4 | 530 nM | Nc1nc(N)c2c(Sc3ccc(Cl)cc3)cccc2n1 [Compound I-2]
5 | 250 nM | Nc1nc(N)c2c(Oc3ccccc3)cccc2n1 [Compound I-5]
6 | 600 nM | CCOc1cccc2nc(N)nc(N)c12 [Compound I-6]
7 | 6800 nM | CN(C)/C=C/c1c(C=O)c2cc([N+](=O)[O-])ccc2n1C [Compound V-1, 2-((E)-2-(dimethylamino)vinyl)-1-methyl-5-nitro-1H-indole-3-carbaldehyde]
8 | 10000 nM | O=C1C(=O)N(C(=O)NC2CCCCC2)c2ccc(Br)cc21 [VI-1]
9 | 3000 nM | OCCNCCCOc1cccc(Cl)c1Cl [VII-1]

Same assay, conditions: clone SMN2BLAClone11

Row | SMILES | increase in BLA expression upon stimulation
10 | CCCC(=O)[O-].[Na+] [sodium butyrate, reference compound] | 1.8 fold
